Measured values: paper PMC7506137, “Selective Phosphodiesterase 1 Inhibitor BTTQ Reduces Blood Pressure in Spontaneously Hypertensive and Dahl Salt Sensitive Rats: Role of Peripheral Vasodilation” (Frontiers in Physiology, 2020)
Like-named read-outs stand apart in the source and are kept apart here.

Legend:
[1] = system: PDE1; assay: Calculated target engagement from unbound drug concentration; format: in vivo, Rat; details: for % TE: 1 h, hill slope 1
[2] = Rat PK parameters (IV and oral); format: in vivo
[3] = molecular target: T1, Rat PDE1B (Rattus norvegicus, UniProt Q01066); assay: PDE scintillation proximity enzyme assay; format: biochemical
T1 construct: made in house; host or cells: baculovirus-infected insect cells
T1 sequence (Q01066 1-535): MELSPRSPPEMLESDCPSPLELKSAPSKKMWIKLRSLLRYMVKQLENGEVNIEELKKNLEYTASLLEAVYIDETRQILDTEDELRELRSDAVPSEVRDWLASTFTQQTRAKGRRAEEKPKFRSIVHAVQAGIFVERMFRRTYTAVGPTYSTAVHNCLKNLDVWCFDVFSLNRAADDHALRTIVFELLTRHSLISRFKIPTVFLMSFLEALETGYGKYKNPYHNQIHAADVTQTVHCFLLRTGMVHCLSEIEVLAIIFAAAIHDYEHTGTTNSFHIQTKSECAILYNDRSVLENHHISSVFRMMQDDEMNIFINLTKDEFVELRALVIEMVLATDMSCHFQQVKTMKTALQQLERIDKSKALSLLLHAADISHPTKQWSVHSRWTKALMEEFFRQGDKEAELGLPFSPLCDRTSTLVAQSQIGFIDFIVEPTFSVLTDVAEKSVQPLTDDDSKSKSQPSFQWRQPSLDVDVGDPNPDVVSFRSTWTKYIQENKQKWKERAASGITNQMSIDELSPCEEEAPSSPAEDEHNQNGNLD
Experimental: (§1) All PDE enzyme activities were measured with a yittrium silicate based scintillation proximity assay that detects radioactive nucleotide monophosphates but not cyclic monophosphates. Assays are conducted in a total volume of 50 μl in 384 well plates (3706, Corning): comprised of 24 μl enzyme, 1 μl compound, and 25 μl of cyclic nucleotide. The general assay buffer consists of 50 mM Tris-HCl (pH 7.5) and 0.1% (w/v) bovine serum albumin (Fatty Acid Free, Sigma-Aldrich). Enzyme concentrations, substrate concentrations, and various PDE-specific buffer additives are described in Supplementary Table 1. Compounds to be tested are diluted in pure dimethyl sulfoxide (DMSO) using 10-point concentration-response curves, and 1 μl is acoustically dispensed into assay plates using the Echo555 (LabCyte). Maximal compound concentration in the reaction mixture is either 10 or 100 μM. Compounds at the appropriate concentration are pre-incubated with either of the PDE enzymes for 30 min before the reaction is started by the addition of substrate ([8-^3H]-cAMP, 20.7 Ci/mmol or [8-^3H]-cGMP; 6.5 Ci/mmol, Perkin Elmer). Reactions are allowed to proceed for 60 min at room temperature before quenching. Next, reactions are stopped by the addition of 400 μg/per well SPA beads (RPNQ0150, Perkin Elmer) and a potent non-selective PDE inhibitor to quench the reaction. Bead bound radioactivity (product) is quantified 12 h later a Microbeta counter (Perkin Elmer). Data is normalized to % inhibition using standard methods ([Campbell et al., 2004]), and IC50 values were plotted using PRISM (GraphPad Software) using the 4 parameter logistic equation ([Campbell et al., 2004]). Data for potency values are expressed as the geometric mean and arithmetic standard deviation.

[4] = molecular target: T2, Rat PDE3A (Rattus norvegicus, UniProt Q62865); assay: PDE scintillation proximity enzyme assay; format: biochemical
T2 construct: made in house; host or cells: baculovirus-infected insect cells
T2 sequence (Q62865 1-1141): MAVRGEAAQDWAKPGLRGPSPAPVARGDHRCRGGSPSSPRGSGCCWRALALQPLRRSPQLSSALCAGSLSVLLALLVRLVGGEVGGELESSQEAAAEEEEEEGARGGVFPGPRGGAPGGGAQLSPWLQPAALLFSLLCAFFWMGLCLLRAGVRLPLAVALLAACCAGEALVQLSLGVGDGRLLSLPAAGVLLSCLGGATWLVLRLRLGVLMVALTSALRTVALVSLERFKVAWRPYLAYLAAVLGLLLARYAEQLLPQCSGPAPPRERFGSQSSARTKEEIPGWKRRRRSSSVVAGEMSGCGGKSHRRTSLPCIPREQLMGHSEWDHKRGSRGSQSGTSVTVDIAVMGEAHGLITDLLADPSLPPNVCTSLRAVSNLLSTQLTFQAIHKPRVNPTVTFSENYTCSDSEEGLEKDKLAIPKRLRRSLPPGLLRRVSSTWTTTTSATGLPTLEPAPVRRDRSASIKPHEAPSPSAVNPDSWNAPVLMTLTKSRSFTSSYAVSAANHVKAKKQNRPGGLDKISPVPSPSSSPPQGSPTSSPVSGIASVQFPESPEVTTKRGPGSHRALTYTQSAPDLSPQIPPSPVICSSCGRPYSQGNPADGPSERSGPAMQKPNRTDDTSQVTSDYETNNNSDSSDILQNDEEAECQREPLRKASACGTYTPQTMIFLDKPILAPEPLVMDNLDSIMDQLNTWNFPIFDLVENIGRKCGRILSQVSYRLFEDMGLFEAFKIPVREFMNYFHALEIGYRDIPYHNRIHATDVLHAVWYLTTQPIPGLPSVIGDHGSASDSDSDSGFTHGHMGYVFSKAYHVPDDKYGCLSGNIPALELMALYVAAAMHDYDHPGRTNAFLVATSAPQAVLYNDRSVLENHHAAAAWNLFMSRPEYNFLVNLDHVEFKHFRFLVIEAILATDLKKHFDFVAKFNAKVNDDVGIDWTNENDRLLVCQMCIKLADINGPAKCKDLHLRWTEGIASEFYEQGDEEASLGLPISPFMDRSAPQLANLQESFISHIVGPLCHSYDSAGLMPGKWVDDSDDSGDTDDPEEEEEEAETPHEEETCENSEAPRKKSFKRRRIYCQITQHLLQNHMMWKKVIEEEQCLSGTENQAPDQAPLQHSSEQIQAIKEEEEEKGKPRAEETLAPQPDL
Experimental: as §1

O=c1c2nnc(C3(C4CC4)CC3)n2c2c(n1CC1CC1)CCCC2 [BTTQ, 1-[1,1′-bi(cyclopropyl)-1-yl]-5-(cyclopropylmethyl)-6,7,8,9-tetrahydro[1,2,4]triazolo[4,3-A]quinoxaline-4(5H)-one]
IC50 ([1]; IC50 used for the target engagement calculation): 1.37 nM
% TE ([1]; dose 0.1 (mg/kg oral)): 88.55%
% TE ([1]; dose 0.3 (mg/kg oral)): 95.29%
% TE ([1]; dose 1 (mg/kg oral)): 98.54%
% TE ([1]; dose 3 (mg/kg oral)): 99.31%
% of dose recovered in urine [2]: 0.4%
clearance ([2]; in vivo, 1 mg/kg, IV 1 mpk, mean ± SD, 3 animals): 3.2 ± 0.6 mL/min/kg
Vd ([2]; in vivo, 1 mg/kg, IV 1 mpk, mean ± SD, 3 animals, read-out: IV Vdss): 0.6 ± 0.04 L/kg
half-life ([2]; in vivo, 1 mg/kg, IV 1 mpk, mean ± SD, 3 animals, read-out: IV t1/2 (converted)): 2.7 ± 0.5 h
bioavailability ([2]; in vivo, IV 1 mpk and oral 10 mpk, mean ± SD, 3 animals): 58 ± 20%
IC50 [3]: 1 nM
IC50 [4]: inactive
IC50 ([4]; read-out: IC50): > 100000 nM
